Experimental findings from patent publication US8802104B2, “Parathyroid hormone receptor activation and stem and progenitor cell expansion” (The General Hospital Corporation, priority 2002, dated 2014) are described below.

The subject of assay [1] is HSCs (CD45.2+ cells in bone marrow). In words: Competitive transplantation into secondary recipients. The settings on record: donor mice PTH treated four weeks; read 6 weeks after transplant; P<0.05, FIG. 5f. Type of assay: in vivo. How it is done: For the competitive transplant studies, 4×10^5 BM MNCs, obtained from CD45.1^+ B6.SJL (Jackson Laboratories, Bar Harbor, Me.) mice were mixed with 2×10^5 cells from mock injected or PTH injected CD45.2^+ C57Bl/6 mice. Recipient B6.SJL mice that had been lethally irradiated 24 hours previously with 10Gy of radiation (^137Cs source) were injected with cells. After 6 weeks, the mice were euthanized with CO2, the BM was removed and flushed with fully supplemented Iscove's Medium. The relative contribution of engraftment from the different cell sources was assessed by flow cytometry utilizing anti-CD45.1 and anti-CD45.2 antibodies (Pharmingen, San Diego, Calif.). To assess the effects of PTH administration post transplantation, recipient C57Bl/6 mice were lethally irradiated and then injected with 2×10^5 BM MNCs from a donor B6.SJL mouse. Twenty-four hours following the injection of the cells, mice were injected with PTH or mock injected as described above for four weeks.
As treatment of stromal cells with PTH led to an increase in the ability of the stromal cell population to support hematopoietic stem cells, it was investigated whether these effects could be recapitulated in vivo. Wild-type C57Bl/6 mice were injected daily with PTH using an intermittent dosing schedule known to increase osteoblasts, and the frequencies of LTC-ICs in the bone marrow were measured. […]

For assay [2], the system named is C57Bl/6 stroma and hematopoietic cells (LTC-IC). In words: LTC-IC assay on wild-type stroma, in vitro treatment with PTH. Type of assay: cell-based, mouse. The method, then: (§1) Murine bone marrow stromal cells from confluent cultures were irradiated (15Gy) and plated at a concentration of 20,000 cells/well in 96-well plates in long-term culture medium. Cells were then seeded into the plates in two-fold serial limiting dilutions and cultured at 33° C./5% CO2 in a humidified atmosphere. Cultures were maintained for 5 weeks, changing half of the medium in the wells weekly. Following this, the medium was replaced with methylcellulose containing medium supplemented with recombinant cytokines as described above, then scored for colony growth ten days following the addition of the medium.
LTC-IC assays were performed using wild-type stroma and hematopoietic cells. […] After fixation in 10% Neutral Formalin Buffer for 30 minutes at room temperature, alkaline phosphatase activity was determined histochemically by incubation for 45 minutes at RT with a mixture of 0.1 mg/ml naphthol AS-MX phosphate (Sigma), 0.5% N,N-dimethylformamide, 0.6 mg/ml red violet LB salt (Sigma) in 0.1 M Tris-HCl (pH 8.5). Alkaline phosphatase positive cells were counted at day 10 of culture, when the cultures were subconfluent and individual cells could be identified. […]

The test system of assay [3] is C-1498/GFP leukemia cells. Nature of the assay: Leukemia outgrowth in niche-stimulated animals. The class given is in vivo, mice. The text has this: The kinetics of leukemia cell engraftment, growth, and maturation were studied in normal mice. In an effort to analyze the growth and fate of C-1498 leukemia cells transplanted into mice, the cells were transduced with a retrovirus expressing GFP(C-1498/GFP). This allows easy tracking of these cells in vivo using GFP as a marker (FIG. 9a). The acute myelogenous leukemia cell line C-1498, a spontaneously-arising acute myelomonocytic leukemia derived from C57/BL6 (H2-b) mice, is easily transplantable, can be cultured in vitro, and infected with retroviruses.
Attention was subsequently directed to determining how activation of the stem cell niche with PTH might affect leukemia growth and maturation. To investigate the kinetics of leukemia outgrowth in “niche-stimulated” animals, animals were pre-stimulated with PTH at 80 μg/kg/day (versus saline alone) for one month. Mice were then lethally irradiated at 10 Gray, and then transplanted with 50,000 leukemia cells (GFP+) and 1×10^6 normal bone marrow cells (GFP-) (FIG. 10a). At 15 days post-transplantation, bone marrow was harvested, and, then, GFP-positive cells were scored as percentage and in absolute number. Since the absolute number of total cells was not statistically different between both groups, only the percentage figures are shown in FIG. 10b, left panel.
In mock-treated animals, osteoblasts and osteoprogenitors, identified at PTH-receptor positive cells, were found lining the endostial surfaces of bone.

In assay [4] the test system is hematopoietic stem cells (LTC-ICs) in the bone marrow. Nature of the assay: In vivo PTH administration: LTC-IC frequency in bone marrow. The arrangement: species or system C57Bl/6 mice. The method, then: as §1
For PTH administration, 6-8 week old wild type C57/B male mice were used. […] Control mice (n=4) were injected with an equivalent volume of vehicle. At the end of the treatment period, ionized serum calcium was measured by the Ciba/Corning 634 Ca^++/pH analyzer, and, after euthanasia, the hind limbs and forelimbs were dissected and utilized for cytologic and histologic analysis.
As treatment of stromal cells with PTH led to an increase in the ability of the stromal cell population to support hematopoietic stem cells, it was investigated whether these effects could be recapitulated in vivo. Wild-type C57Bl/6 mice were injected daily with PTH using an intermittent dosing schedule known to increase osteoblasts, and the frequencies of LTC-ICs in the bone marrow were measured. […] To further define that functional stem cells were increased after PTH treatment, an in vivo assay of competitive transplantation into secondary recipients was used and a >2-fold increase in HSCs was documented (P=<0.05, FIG. 5f). […] Therefore, pharmacological activation of PPR increased stem cell number, but appeared to do so without a broad hematopoietic cell expansion.

Entries after “also recorded” stand apart in the source; their conditions may differ.

Turning to Rat PTH (1-34), the “increase in HSCs, competitive transplantation” value in assay [1] is above 2 fold. The “ability of stroma to support LTC-ICs” value in assay [2] (PTH 10^-7 M present during expansion of the stromal population, P=0.004, FIG. 5a) is given as “enhanced the ability of the stroma to support LTC-ICs; also recorded: increasing LTC-IC”. The LTC-IC support entry in assay [2] (stromal cells expanded in the absence of PTH, or PTH added at the same time as the hematopoietic cells) was “the effect was not seen”. In assay [3] (10 micron bone sections, PTH-treated animals), the “localisation of PTH-r positive cells (osteoblasts, osteoprogenitors)” value is recorded as “migrated extensively into the marrow”. In assay [3] (10 micron bone sections, PTH-treated vs mock-treated), the “GFP-positive leukemia cells in bone sections (histology)” value is “markedly reduced”. For the same substance, in assay [3] (PTH 80 μg/kg/day one month pre-stimulation, 15 days post-transplantation, 3 of 3 experiments), the “number of GFP-positive leukemia initiating cells in bone marrow” value was “markedly reduced”. The “kinetics of normal hematopoiesis” value in assay [3] (PTH treated animal, FIG. 11) was “did not change”. Also, in assay [4] (four weeks PTH treatment, 80 μg/Kg i.p. 5x/week), the “hematopoietic stem cells over mock injected mice” value is reported as “significant increase in the hematopoietic stem cells”. Besides, in assay [4] (four weeks PTH, P<0.005, FIG. 5e), the “limit dilution LTC-IC assay, stem-like cells” value is reported as “an increase in stem-like cells”. In assay [4] (two week PTH treatment, 80 μg/Kg i.p.), the “hematopoietic stem cell population (frequencies of LTC-ICs in the bone marrow)” value was “did not result in any significant increase”.
